From ChEMBL document CHEMBL5465560, “Selectivity Literature for EUbOPEN Chemogenomic Library” (2024)
Each block holds one compound with its values, some of them ahead of it.

Experiments:
[1] = molecular target: Dual specificity mitogen-activated protein kinase kinase 2 (Homo sapiens) (UniProt P36507); conditions: at 10 µM
[2] = molecular target: MAP kinase-activated protein kinase 2 (Homo sapiens, UniProt P49137); test: Selectivity interaction (Ambit KINOMEscan and KiNATiv profiling in Jurkat cells) EUB0000090b MAPKAPK2; assay type: cell-based; conditions: at 1 µM
[3] = molecular target: Protein-tyrosine kinase 6 (Homo sapiens, UniProt Q13882); test: Selectivity interaction (KinomeScan (DiscoverX)) EUB0000045b PTK6
[4] = molecular target: T1, Ephrin type-B receptor 2 (Homo sapiens) (UniProt P29323); test: Selectivity interaction (KinomeScan (DiscoverX)) EUB0000045b EPHB2
T1 sequence (whole entry): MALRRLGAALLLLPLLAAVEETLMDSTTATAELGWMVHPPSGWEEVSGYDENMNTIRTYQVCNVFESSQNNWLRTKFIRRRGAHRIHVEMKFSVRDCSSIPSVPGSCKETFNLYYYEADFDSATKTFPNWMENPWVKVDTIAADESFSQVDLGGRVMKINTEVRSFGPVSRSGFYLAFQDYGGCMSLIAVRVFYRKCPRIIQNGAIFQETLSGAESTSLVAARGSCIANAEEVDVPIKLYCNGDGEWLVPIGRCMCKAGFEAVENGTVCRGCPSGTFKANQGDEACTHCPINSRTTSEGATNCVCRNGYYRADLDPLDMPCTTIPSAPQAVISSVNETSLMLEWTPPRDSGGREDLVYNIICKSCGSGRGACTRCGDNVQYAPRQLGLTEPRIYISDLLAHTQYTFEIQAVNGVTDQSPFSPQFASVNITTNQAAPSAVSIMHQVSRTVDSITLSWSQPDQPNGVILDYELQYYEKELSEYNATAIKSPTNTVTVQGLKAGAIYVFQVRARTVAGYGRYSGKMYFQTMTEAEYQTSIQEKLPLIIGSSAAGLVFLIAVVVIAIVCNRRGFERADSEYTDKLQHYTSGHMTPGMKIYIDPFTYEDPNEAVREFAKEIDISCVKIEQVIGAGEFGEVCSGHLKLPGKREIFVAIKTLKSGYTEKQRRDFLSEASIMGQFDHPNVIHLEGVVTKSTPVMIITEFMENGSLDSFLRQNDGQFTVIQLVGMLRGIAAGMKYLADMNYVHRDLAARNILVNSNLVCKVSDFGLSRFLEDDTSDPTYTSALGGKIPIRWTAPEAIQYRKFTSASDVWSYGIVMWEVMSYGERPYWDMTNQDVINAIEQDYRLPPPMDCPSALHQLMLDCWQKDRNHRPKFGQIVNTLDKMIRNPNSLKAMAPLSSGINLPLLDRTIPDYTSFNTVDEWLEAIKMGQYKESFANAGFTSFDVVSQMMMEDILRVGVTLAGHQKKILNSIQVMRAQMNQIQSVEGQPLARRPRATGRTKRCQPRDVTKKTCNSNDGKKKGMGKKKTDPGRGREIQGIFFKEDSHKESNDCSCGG

[5] = molecular target: Proto-oncogene tyrosine-protein kinase Src (Homo sapiens, UniProt P12931); conditions: at 10 µM
[6] = molecular target: T2, Inhibitor of nuclear factor kappa-B kinase subunit alpha (Homo sapiens) (UniProt O15111); test: Selectivity interaction (KinomeScan (DiscoverX)) EUB0000618a CHUK; conditions: at 10 µM
T2 sequence (whole entry): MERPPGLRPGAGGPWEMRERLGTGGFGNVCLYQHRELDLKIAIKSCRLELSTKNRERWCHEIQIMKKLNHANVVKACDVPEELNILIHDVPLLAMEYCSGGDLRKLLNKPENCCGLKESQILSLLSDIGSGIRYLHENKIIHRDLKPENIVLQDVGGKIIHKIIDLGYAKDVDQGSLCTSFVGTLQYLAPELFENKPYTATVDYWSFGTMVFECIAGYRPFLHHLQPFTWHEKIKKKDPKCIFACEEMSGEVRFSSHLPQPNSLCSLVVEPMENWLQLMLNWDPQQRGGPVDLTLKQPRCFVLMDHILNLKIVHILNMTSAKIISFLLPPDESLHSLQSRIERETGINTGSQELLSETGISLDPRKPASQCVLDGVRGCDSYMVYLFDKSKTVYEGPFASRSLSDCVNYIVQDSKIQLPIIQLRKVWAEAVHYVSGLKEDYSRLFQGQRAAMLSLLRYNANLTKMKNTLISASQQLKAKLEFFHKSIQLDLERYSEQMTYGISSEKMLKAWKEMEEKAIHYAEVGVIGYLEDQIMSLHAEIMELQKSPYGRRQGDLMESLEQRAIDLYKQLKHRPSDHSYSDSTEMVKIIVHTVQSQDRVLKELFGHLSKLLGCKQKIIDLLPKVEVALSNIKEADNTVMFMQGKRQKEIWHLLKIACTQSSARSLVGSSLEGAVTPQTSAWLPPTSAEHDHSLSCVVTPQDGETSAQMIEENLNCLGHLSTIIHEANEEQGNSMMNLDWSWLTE

Sequence of Protein-tyrosine kinase 6 (Q13882 whole entry, looked up): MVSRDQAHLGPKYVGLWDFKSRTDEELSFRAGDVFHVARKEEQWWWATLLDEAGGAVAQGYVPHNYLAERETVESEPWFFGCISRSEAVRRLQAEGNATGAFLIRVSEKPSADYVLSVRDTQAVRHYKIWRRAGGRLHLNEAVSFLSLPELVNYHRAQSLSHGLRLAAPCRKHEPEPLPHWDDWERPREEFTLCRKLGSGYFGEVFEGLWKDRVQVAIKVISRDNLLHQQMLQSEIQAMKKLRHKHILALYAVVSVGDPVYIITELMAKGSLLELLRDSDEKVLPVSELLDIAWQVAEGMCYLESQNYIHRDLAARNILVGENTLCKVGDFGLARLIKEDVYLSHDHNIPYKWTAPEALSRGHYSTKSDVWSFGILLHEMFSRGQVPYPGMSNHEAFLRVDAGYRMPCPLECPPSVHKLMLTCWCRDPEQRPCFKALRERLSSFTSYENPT
Sequence of Dual specificity mitogen-activated protein kinase kinase 2 (Homo sapiens) (P36507 whole entry): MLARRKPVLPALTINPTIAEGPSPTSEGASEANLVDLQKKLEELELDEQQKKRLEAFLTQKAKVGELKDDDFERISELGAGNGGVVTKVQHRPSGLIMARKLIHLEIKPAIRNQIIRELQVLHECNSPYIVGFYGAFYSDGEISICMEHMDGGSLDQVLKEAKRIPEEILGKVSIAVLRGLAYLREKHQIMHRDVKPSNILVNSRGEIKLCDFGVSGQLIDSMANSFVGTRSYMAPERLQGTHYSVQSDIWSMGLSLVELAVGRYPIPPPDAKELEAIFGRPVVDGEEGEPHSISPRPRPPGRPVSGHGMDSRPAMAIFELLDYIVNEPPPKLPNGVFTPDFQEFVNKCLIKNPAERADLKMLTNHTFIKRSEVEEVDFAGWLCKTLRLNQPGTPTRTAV
Sequence of Proto-oncogene tyrosine-protein kinase Src (P12931 2-536 limits assumed): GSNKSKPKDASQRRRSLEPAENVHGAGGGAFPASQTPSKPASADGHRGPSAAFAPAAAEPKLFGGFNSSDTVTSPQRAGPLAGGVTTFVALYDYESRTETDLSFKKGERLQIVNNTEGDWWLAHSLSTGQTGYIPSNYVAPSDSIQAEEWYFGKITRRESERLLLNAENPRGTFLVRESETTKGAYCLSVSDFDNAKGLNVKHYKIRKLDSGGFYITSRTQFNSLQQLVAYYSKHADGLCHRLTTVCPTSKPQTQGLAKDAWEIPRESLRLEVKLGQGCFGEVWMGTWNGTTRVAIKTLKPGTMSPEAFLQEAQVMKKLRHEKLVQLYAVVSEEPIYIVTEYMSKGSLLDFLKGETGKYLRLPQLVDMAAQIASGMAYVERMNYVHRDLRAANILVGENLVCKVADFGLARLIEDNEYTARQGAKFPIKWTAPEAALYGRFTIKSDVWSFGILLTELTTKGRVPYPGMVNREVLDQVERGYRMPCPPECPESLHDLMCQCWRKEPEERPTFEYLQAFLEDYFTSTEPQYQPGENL
Sequence of MAP kinase-activated protein kinase 2 (P49137 whole entry, looked up): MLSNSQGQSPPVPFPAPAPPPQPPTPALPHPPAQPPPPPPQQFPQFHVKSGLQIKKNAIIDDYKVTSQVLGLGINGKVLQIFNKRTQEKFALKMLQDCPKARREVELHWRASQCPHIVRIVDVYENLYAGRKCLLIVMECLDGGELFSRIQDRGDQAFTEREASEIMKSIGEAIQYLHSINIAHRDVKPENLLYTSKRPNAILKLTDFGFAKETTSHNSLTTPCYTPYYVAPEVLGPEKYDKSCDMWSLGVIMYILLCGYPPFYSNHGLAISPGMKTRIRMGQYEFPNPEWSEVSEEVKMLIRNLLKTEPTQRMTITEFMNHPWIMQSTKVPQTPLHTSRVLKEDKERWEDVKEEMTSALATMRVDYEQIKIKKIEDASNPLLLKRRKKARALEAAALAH

% of control [1]: 100%
Structure (SMILES): CCN(CC)CCCCNc1ncc2cc(-c3cc(OC)cc(OC)c3)c(NC(=O)NC(C)(C)C)nc2n1

Structure (SMILES): CN(C)C/C=C/C(=O)Nc1ccc(C(=O)N2CCCC(Nc3ncc(Cl)c(-c4c[nH]c5ccccc45)n3)C2)cc1 (stereo not drawn)
% of control [2]: 97%

Structure (SMILES): C=CC(=O)Nc1cc(-n2c(=O)ccc3cnc4ccc(-c5ccc(NS(C)(=O)=O)cc5)cc4c32)ccc1C
% of control ([3]; at 1 µM): 100%
% of control ([3]; at 10 µM): 77%
% of control ([4]; at 1 µM): 80%
% of control ([4]; at 10 µM): 95%

Structure (SMILES): Cc1cc([C@@H](C)Nc2ccccc2C(=O)O)c2nc(N3CCOCC3)cc(=O)n2c1 [AZD-6482]
% of control [5]: 100%

Structure (SMILES): O[C@H]1CC[C@H](Nc2ncc3nc(Nc4c(F)cc(F)cc4F)n([C@H]4CCOC4)c3n2)CC1
% of control [6]: 86%
